Assay results as given in US20240118263A1, “TARGET FOR SCREENING ANTI-TUMOR DRUG, USE THEREOF AND SCREENING METHOD THEREFOR” (SHENYANG FUYANG PHARMACEUTICAL TECHNOLOGY CO., LTD., priority 2019, published 2024).

Legend:
[1] = biological target: SELH (Homo sapiens (Human), UniProt Q8IZQ5); assay: Drug affinity responsive target stability (DARTS) assay in LN229 cells; assay type: binding; settings: LN229 lysate, ISP I 40 μg/mL, mass spectroscopy
Description: (2) To identify ISP I's molecular target, the inventors performed drug affinity responsive target stability (DARTS) assay in LN229 cells.
The inventors discovered that the binding of ISP I to its target proteins temporarily locks them into a stable conformational structure, which prevents their recognition by proteases. After evading protease degradation, the identity of ISP I's target proteins was determined using mass spectroscopy.
DARTS assay data were taken to identify the target of ISP I in vitro. For this assay, the invenots used the protocol published by Lomenick et al., Proc. Nat'l Acad. Sci. USA 106: 21984 (2009). Briefly, LN229 cells were lysed with M-PER (Pierce) supplemented with protease and phosphatase inhibitors. After centrifugation at 14,000 rpm for 15 min, lysates were diluted to the same final volume and protein concentration with M-PER and were dissolved in TNC buffer [50 mM Tris-HCl (pH 8.0), 50 mM NaCl, 10 mM CaCl2]. All steps were performed on ice or at 4° C. to help prevent premature protein degradation. […] Peptides were analyzed by LC/MS/MS on a Thermo LTQ-Orbitrap mass spectrometer with an Eksigent LC pump. For quantitative comparison of protein and peptide abundances, MS spectra were analyzed by means of the differential workflow of Rosetta Elucidator (Rosetta Inpharmatics).

[2] = biological target: SELH protein expression (Homo sapiens (Human), UniProt Q8IZQ5); assay: Western blot of SELH protein in ISP I-treated cells; assay type: cell-based
Sequence of SELH protein expression (Q8IZQ5 whole entry): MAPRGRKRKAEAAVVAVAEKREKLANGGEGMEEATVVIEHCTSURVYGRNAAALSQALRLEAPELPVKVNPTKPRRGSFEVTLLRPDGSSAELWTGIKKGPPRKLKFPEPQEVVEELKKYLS
Description: (§1) A cycloheximide (CHX) chase assay was completed to assess ISP I's effect on SELH protein degradation.

[3] = biological target: SELH protein degradation (Homo sapiens (Human), UniProt Q8IZQ5)
Sequence of SELH protein degradation (Q8IZQ5 whole entry): as above
Description: as §1

[4] = test system: human non-small cell lung cancer cells A549; assay: MTT in-vitro anti-tumor activity test, A549; settings: MTT
Description: Experimental Materials Human non-small cell lung cancer cells A549, mouse breast cancer cells 4T-1 and mouse melanoma B16-BL6 were purchased from American Type Current Collection (ATCC, Rockville, MD, USA). An RPMI-1640 culture solution containing 10% of fetal calf serum and 2% of glutamine was inoculated with the A549, 4T-1 and B16-BL6 cells, and the cells were incubated at 37° C. in a 5% CO2 incubator.
The compounds were dissolved in DMSO under a sterile condition, and the obtained solutions were diluted to required concentrations by using an RPMI 1640 culture solution, wherein the final concentration of the DMSO was less than 0.5%.
MTT reduction method is used.
A549, 4T-1 and B16-BL6 were used as adherent cells, adherent tumor cells in a logarithmic phase were selected, digested with pancreatin, and then prepared into a cell suspension of 5×10^4/ml with a culture medium containing 10% of calf serum, a 96-well culture plate was inoculated with the cell suspension, wherein each well contained 100 μl of the cell suspension, and incubation was carried out for 24 h at 37° C. and 5% CO2. Replacing was carried out with a new culture solution containing the samples to be detected of different concentrations in the experimental groups, replacing was carried out with a culture solution containing a same volume of solvent in the control group, three parallel wells were set in each group, and incubation was carried out for 48 hours at 37° C. and 5% CO2. The supernate was discarded, careful washing was carried out with PBS twice, 100 μl of a freshly prepared culture medium containing 0.5 mg/ml of MTT was added into each well, and incubation was continued to be carried out at 37° C. for 4 h. The supernatant was carefully discarded, 150 μl of DMSO was added, uniform mixing was carried out for 10 min by using a micro oscillator, and the optical density value was measured at 492 nm by using a microplate reader.
Tumor cell growth inhibition ratio (%)=[A492 (negative control)−A492 (dosing group)]/A492 (negative control)×100%
The median inhibitory concentration (IC50) of the sample is calculated.

[5] = test system: LN229 and U251 cells; assay: Cell cycle analysis by flow cytometry (EdU and DAPI), glioblastoma cells; assay type: cell-based; settings: LN229 and U251, compared with control cells
Description: For monitoring cell-cycle arrest of ISP I-treated cells, Click-iT EdU Flow Cytometry Assay Kits were used, a product of ThermoFisher Scientific. Cells were co-cultured with EdU at a concentration of 10 μM for 1 hour. After fixation and permeabilization, EdU-positive cells were labeled with Alexa Fluor 647 fluorescein. DAPI also was used for measuring total DNA content to identify differences in cell cycle phases. Data were collected by means of a BD LSRFortessa flow cytometer using FlowJo software. Cells that are positive with EdU and DAPI were in S-Phase of the cell cycle.

[6] = test system: IOMM xenograft; assay: IOMM meningioma subcutaneous xenograft model; assay type: in vivo, Nude mice; settings: 35 mg/kg intraperitoneally daily, vs control
Description: For subcutaneous xenografts, NSG mice (6-8 weeks old) from the NCI-Frederick animal facility and Jackson Lab (Bar Harbor, ME USA) were injected with 5×10^6 to 1×10^7 cells subcutaneously in the flank. One week later, the tumor-bearing mice were randomly assigned to different groups and made the tumor volume baseline equivalent and treated with normal saline or Zenomycin (35 mg/kg) everyday intraperitoneally. Tumors were measured using a caliper, and volume was calculated.

[7] = test system: 786-O and RCC4 cells; assay: Annexin V apoptosis analysis, RCC cells; assay type: cell-based
Description: Cell viability was assessed similarly via CKK8 analysis. […] (FIG. 10C, D).
Cell apoptosis and cell cycle: Cells (2×10^5) were plated in 6-well plates and treated with different concentrations of ISP I. Then the cells were harvested and washed three times with PBS. Cells were resuspended in 100 μl binding buffer and were incubated with 5 μl APC-conjugated Annexin V working solution, a product of BD bioscience (Franklin Lakes, NJ USA), and 1 μl propidium iodide (PI), a product of Invitrogen, for 15 min at room temperature with protection from light. Data acquisition and quantification were processed with BD LSRFortessa flow cytometer, using FlowJo software (Ashland, OR USA).

[8] = test system: B16 melanoma lung metastasis; assay: Metastatic murine melanoma (B16) lung metastasis model; assay type: in vivo, C57BL/6 mice; settings: ISP I 35 mg/kg intraperitoneally daily, 12 days, vs saline
Description: In addition to the aforementioned xenograft tumor models, the anti-tumor activity of ISP I was assessed in a metastatic murine melanoma (B16) model. Mice were intravenously injected with 2×10^5 B16 cells and randomized into the following three treatment groups: ISP I (35 mg/kg), Carrimycin (56 mg/kg), Saline (control) (FIG. 13D).
For metastasis study, C57BL/6 mice (4-5 weeks) from Charles River Laboratories (Wilmington, MA USA) were assigned randomly to one or another of two groups, 9 animals per group. B16-F10 mouse skin melanoma cells (2×10^5) were resuspended in 100 μl saline and injected through tail vein. After treatment with ISP I at 35 mg/kg for 12 days, all mice were euthanized, and the lungs were examined for counting black metastasis dots.

Sequence of SELH (Q8IZQ5 whole entry): as above

CO[C@@H]1[C@@H](O[C@@H]2O[C@H](C)[C@@H](O[C@H]3C[C@@](C)(O)[C@@H](OC(=O)CC(C)C)[C@H](C)O3)[C@H](N(C)C)[C@H]2O)[C@@H](CC=O)C[C@@H](C)[C@@H](O[C@H]2CC[C@H](N(C)C)[C@@H](C)O2)/C=C/C=C/C[C@@H](C)OC(=O)C[C@H]1O [Isovalerylspiramycin I, 4″-isovalerylspiramycin I]
target protein identified by DARTS [1]: SELH was the most abundant primary protein | SELH protein expression ([2]; LN229 cells, different concentrations of ISP I): reduced SELH protein expression in LN229 cells in a dose-dependent manner | SELH levels in glioblastoma cell lines ([2]; T98G, U118, LN229, U251, 10 μg/mL of ISP I for 24 hours): decreased SELH levels | SELH protein half-life [3]: reduced the SELH protein half-life | inhibition effect on A549 cells (in words) [4]: significantly inhibited the human lung cancer A549 cells | cell distribution in cell cycle phases [5]: dose-dependent increase in the G0/G1 phase and a decrease in the S phase | tumor size and weight, IOMM xenograft [6]: significantly reduced tumor size and weight | apoptosis (Annexin V) [7]: dose-dependent apoptosis | lung tumor nodules [8]: significantly reduced lung tumor nodules
